Assay results as given in patent US10973832B2, “Muscarinic M1 receptor agonists” (Heptares Therapeutics Limited, priority 2011, dated 2021).

Assays:
[1] = biological target: T1, human muscarinic M4 receptor (Homo sapiens, UniProt P08173); assay: Phospho-ERK1/2 assay, muscarinic M4; assay type: cell-based; conditions: for Emax: CHO, read-out: % Emax cf. ACh (M4)
T1 construct: expressed in transfected cells
T1 sequence (P08173 1-479): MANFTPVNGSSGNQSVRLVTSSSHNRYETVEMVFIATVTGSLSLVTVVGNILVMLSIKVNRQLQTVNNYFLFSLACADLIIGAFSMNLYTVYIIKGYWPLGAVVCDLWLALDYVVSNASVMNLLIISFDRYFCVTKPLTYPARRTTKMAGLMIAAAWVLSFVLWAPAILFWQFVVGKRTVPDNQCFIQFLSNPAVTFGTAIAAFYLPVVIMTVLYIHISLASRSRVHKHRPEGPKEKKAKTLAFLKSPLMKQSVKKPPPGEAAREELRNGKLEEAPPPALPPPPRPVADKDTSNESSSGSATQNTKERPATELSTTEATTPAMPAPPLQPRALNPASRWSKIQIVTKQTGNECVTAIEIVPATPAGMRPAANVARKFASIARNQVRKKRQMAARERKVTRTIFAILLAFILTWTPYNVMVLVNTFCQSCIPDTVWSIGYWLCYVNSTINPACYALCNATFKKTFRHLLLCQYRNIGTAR
In short: (§1)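 Agonist-induced phospho-ERK1/2 is measured in serum-starved CHO cells carrying the human receptor, with a 5 min stimulation at 37 °C. AlphaScreen SureFire quantifies the signal, from which pEC50 and Emax are obtained.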

[2] = biological target: T2, human muscarinic M2 receptor (Homo sapiens, UniProt P08172); assay: Phospho-ERK1/2 assay, muscarinic M2; assay type: cell-based; conditions: for Emax: CHO, read-out: % Emax cf. ACh (M2)
T2 sequence (P08172 1-466): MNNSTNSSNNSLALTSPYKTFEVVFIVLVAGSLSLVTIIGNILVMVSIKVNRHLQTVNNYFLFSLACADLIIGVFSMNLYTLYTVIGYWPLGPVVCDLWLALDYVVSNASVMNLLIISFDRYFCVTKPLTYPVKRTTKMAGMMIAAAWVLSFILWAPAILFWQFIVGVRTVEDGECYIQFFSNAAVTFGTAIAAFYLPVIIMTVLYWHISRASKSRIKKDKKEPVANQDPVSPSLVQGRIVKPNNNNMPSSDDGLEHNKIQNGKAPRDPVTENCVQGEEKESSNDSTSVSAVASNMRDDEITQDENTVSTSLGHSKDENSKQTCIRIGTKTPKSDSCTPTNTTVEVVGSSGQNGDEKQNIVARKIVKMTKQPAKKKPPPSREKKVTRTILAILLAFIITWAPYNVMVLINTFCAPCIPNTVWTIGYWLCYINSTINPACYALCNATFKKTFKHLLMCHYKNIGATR
In short: as §1

Male Wistar rats = assay: Novel object recognition; assay type: in vivo; conditions: 10 and 30 mg/kg oral gavage 90 minutes prior to training; p<0.05
Method: The novel object recognition paradigm is based on the greater spontaneous exploration of a novel object, compared with a familiar object, shown by rodents (Ennaceur and Delacour, 1988). […] Male Wistar rats were assessed for cognitive ability in a test apparatus comprising an open-field arena placed in a sound-attenuated room under dimmed lighting. Images of the open-field were captured by digital camera, and viewed on a monitor in an adjoining room. Each rat was subjected to the procedure separately and care taken to remove any olfactory/taste cues by cleaning the arena and test objects with alcohol between trials and rats. All tests are video scored blind to treatment. Following a 10-minute habituation period, each rat was placed into the test arena in the presence of two identical objects (plastic shapes). Each rat was placed facing the same direction at the same position in the arena, and the time spent actively exploring the objects during a 5-minute training period (T1) was recorded. The rat is returned to its home cage between tests. After 24 hours, each rat was again placed in the test arena for 5 minutes (T2) in the presence of one of the familiar objects and a novel object, and the time spent exploring both objects again recorded. The presentation order and position of the objects (left/right) was randomized between rats to prevent bias from order or place preference. Doses of 3, 10 or 30 mg/kg of test compound were administered by oral gavage 90 minutes prior to training (n=8). Donepezil (0.1 mg/kg) and galanthamine (3 mg/kg) were administered via intraperitoneal injection 60 minutes prior to training. Vehicle-treated controls were employed for comparison.

| SMILES | EC50 [1] [nM] | Emax [1] [%] | EC50 [2] [nM] | Emax [2] [%] | novel object recognition memory vs vehicle-treated controls (Male Wistar rats) |
| --- | --- | --- | --- | --- | --- |
| CCOC(=O)N1CCCC(N2CCC(C(=O)NC3(C)CCC3)CC2)CC1 (stereo not drawn) [Example 27, ethyl 4-(4-((1-methylcyclobutyl)carbamoyl)piperidin-1-yl)azepane-1-carboxylate] | 427 | 88 | > 20000 | 56 | – |
| CCOC(=O)N1CCC[C@H](N2CCC(C(=O)NC3(C)CCC3)CC2)CC1 [Example 65, ethyl (4S)-4-{4-[(1-methylcyclobutyl)carbamoyl]piperidin-1-yl)azepane-1-carbondate] | 224 | 97 | > 20000 | 7 | significantly improved novel object recognition memory |
